Assay results: patent publication US20250136607A1 (REGOR PHARMACEUTICALS, INC., priority 2021, published 2025)
pIC50: −log10 of the molar value. Read-outs that look alike come from different tables or passages of the source.

Legend:
[1] = target: Protein arginine deiminase 4 (PAD4) (Homo sapiens, UniProt Q9UM07); assay: PAD4 ammonia release assay; assay type: biochemical
Method in brief: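 PAD4 (20 nM, 2× working solution) was preincubated with compound for 15 min at RT in 100 mM HEPES pH 8.0, 2 mM CaCl2, 50 mM NaCl, 0.1 mM TCEP, BSA at 1.25% DMSO. BAEE (600 μM, 2× mix) reacted 60 min, then OPA/DTT/EDTA detection for 120 min. IC50 came from a 4-parameter fit, normalized to 50 μM reference (100%) and DMSO (0%).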

[2] = system: Citrullinated Histone H3 in dHL-60 cells (differentiated HL-60); assay: dHL-60 Cit-H3 ELISA assay; assay type: cell-based, human; conditions: read-out: Average IC50 Abs
Method: Cell culture: HL-60 cells were grown in IMDM+20% FBS+1% PS. The suspension cells were split into 1:5 with fresh media every 2-3 days to maintain cell density between 1×10^5 to 1×10^6 viable cells/mL. HL-60 cells differentiation: HL-60 cells were diluted to 1×10^5 cells/mL and differentiated into neutrophil-like cells with 100 mM DMF treatment for 72 hours in flask at 37° C., 5% CO2. dHL-60 Cells plating: • 1) HL-60 cells were collected, and the plate was centrifuged at 1000 rpm for 5 min. • 2) The HL-60 cells were diluted to 1.25×10^6 cells/mL and plated into a 96-well plate with 80 μL/well (i.e., 1×10^5/well). The plate was then incubated in the incubator (5% CO2, 37° C.) for 30 min to allow cells to adhere. Compound treatment: • 1) Preparation of compound serial dilution (source plate 500×, final DMSO concentration: 0.2%): briefly, compounds were dissolved in 100% DMSO to a concentration of 20 mM (the stock solution) and a 3-fold serial dilution with 8-point doses was performed. • 2) A 10× compound solution was pipetted up and down; and 10 μL/well of compounds were added into each well and incubated for 30 min. Stimulation with 25 μM A23187: • 1) A solution of A23187 (250 μM) in complete IMDM (IMDM+10% FBS+1% PS) containing 150 U/mL S7 Nuclease was prepared. The obtained solution was added 10 μL/well into each well and incubated for 3 h in the incubator (5% CO2, 37° C.). • 2) The dHL-60 cells treated with 10 μL/well complete IMDM without A23187 worked as negative control. Sample preparation: • 1) EDTA (0.5 M, 2 μL/well) were added to all the wells to stop the reaction. • 2) The plate was centrifuged at 1000 rpm for 5 min to collect supernatant. • 3) The supernatant was then diluted at least 1:2 before adding to the ELISA plate for citrullinated H3 analysis.
The standard was reconstituted with 2 mL of Assay buffer to 500 ng/mL. The reconstituted standard was relatively unstable at 4° C. and should be used within 3 hr after reconstitution.
• 1) 100 μL of the standards or diluted samples were added to the wells on the ELISA plate. • 2) The plate was covered with Cover Sheet and incubated for 2 h at room temperaturert on an orbital shaker.
On the day of the assay, the reagent was thawed at room temperaturert. For one plate, 1.2 mL of HRP Conjugate were diluted into 10.8 mL of assay buffer. A diluted HRP Conjugate was prepared shortly before use.
• 1) The wells were empties and rinsed four times with 1× wash buffer with 300 μL/well (Low speed). The plate was inverted between wash steps to empty the plate. After the last wash, the inverted plate was gently tapped on absorbent paper to remove the residual wash buffer. • 2) 100 μL of the HRP Conjugate working solution were added to each well of the plate. • 3) The plate was covered with cover sheet and incubated for 1 h at RT on an orbital shaker.
• 1) The wells were empties and rinsed four times with 1× wash buffer with 300 μL/well (low speed). The plate was inverted between wash steps to empty the plate. […] 100 uL of HRP STOP solution were added to each well of the plate.
• 1) Wipe the bottom of the plate with a clean tissue to remove fingerprints, dirt, etc. • 2) Read the plate at a wavelength of 450 nm.
The percent (%) inhibition at each concentration of compound was calculated based on and relative to the signal in the HPE and ZPE wells contained within each assay plate. The HPE wells worked as […], and the ZPE wells didn't contain any compound but rather DMSO (final concentration=0.1%) as […]. The concentrations and % inhibition values for tested compounds were plotted and the concentration of compound required for 50% inhibition (IC50) was determined with a Four-parameter logistic dose response equation. The endpoint value (IC50) for the reference peptide/compound was evaluated in each experiment as a quality control measure. If the endpoint value is within 3-fold of the expected value then the experiment is deemed acceptable. […]

[3] = PAD4 ammonia release assay, BAEE substrate, 60 min at RT, read-out: Average IC50 Abs
[4] = Homo sapiens, HL-60, 3 h, stimulation with 25 μM A23187 for 3 h

Sequence of Protein arginine deiminase 4 (PAD4) (Q9UM07 whole entry): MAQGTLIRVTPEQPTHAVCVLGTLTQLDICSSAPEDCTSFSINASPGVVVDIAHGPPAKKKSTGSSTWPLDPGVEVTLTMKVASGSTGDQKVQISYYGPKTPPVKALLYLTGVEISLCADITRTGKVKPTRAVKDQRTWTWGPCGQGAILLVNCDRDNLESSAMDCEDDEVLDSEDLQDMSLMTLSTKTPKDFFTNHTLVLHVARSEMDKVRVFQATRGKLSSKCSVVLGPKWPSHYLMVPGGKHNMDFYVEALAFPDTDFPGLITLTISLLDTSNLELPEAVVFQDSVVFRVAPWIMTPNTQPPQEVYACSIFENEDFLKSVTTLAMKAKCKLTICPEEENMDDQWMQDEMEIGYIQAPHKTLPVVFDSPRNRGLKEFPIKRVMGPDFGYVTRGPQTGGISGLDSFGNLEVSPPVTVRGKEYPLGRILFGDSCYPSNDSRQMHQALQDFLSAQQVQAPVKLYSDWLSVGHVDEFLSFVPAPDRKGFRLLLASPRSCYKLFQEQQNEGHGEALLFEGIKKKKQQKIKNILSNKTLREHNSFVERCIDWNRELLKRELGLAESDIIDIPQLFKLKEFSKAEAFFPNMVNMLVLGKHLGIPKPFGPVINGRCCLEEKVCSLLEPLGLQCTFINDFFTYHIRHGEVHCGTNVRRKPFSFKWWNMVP

Structure (SMILES)	pIC50 [1, 3]	pIC50 [2, 4]	pIC50 ([1]; PAD4 activity comparison, read-out: PAD4 Ammonia assay IC50)	relative potency of separated isomers in the PAD4 biochemical assay ([1]; SFC-separated stereoisomer pairs)	pIC50 ([2]; stimulation with 25 μM A23187 for 3 h)	pIC50 ([2]; Homo sapiens, HL-60, stimulation with 25 μM A23187 for 3 h)
CCC1CN(CCCO)c2cccc3cc(-c4nc5cc(C(=O)N6C[C@H]7CC[C@@H]6[C@@H]7N)cc(F)c5n4CC4COC4)n1c23 (stereo partly drawn) [Example 92, ((1R,4R,7R)-7-amino-2-azabicyclo[2.2.1]heptan-2-yl)(2-(3-ethyl-1-(3-hydroxypropyl)-2,3-dihydro-1H-pyrrolo[1,2,3-de]quinoxalin-5-yl)-7-fluoro-1-(oxetan-3-ylmethyl)-1H-benzo[d]imidazol-5-yl)methanone]	6.30 to 7.00	≥ 7.00				
CCC1CNc2cc(F)cc3cc(-c4nc5cc(C(=O)N6C[C@H]7CC[C@@H]6[C@@H]7N)cc(F)c5n4C)n1c23 (stereo partly drawn) [Example 130, ((1R,4R,7R)-7-amino-2-azabicyclo[2.2.1]heptan-2-yl)(2-(3-ethyl-8-fluoro-2,3-dihydro-1H-pyrrolo[1,2,3-de]quinoxalin-5-yl)-7-fluoro-1-methyl-1H-benzo[d]imidazol-5-yl)methanone]	6.30 to 7.00	6.30 to 7.00				
COc1cc(C(=O)N2CCC[C@@H](N)C2)cc2nc(-c3cc4cccc5c4n3CCN5)n(C)c12 [Example 2, (R)-(3-aminopiperidin-1-yl)(2-(2,3-dihydro-1H-pyrrolo[1,2,3-de]quinoxalin-5-yl)-7-methoxy-1-methyl-1H-benzo[d]imidazol-5-yl)methanone]	< 5.30	5.30 to 6.30	5.27			
COc1cc(C(=O)N2C[C@H](N)C[C@@H](F)C2)cc2nc(-c3cc4cccc5c4n3CCN5CCCO)n(CC3CC3)c12 [Example 59, ((3R,5R)-3-amino-5-fluoropiperidin-1-yl)(1-(cyclopropylmethyl)-2-(1-(3-hydroxypropyl)-2,3-dihydro-1H-pyrrolo[1,2,3-de]quinoxalin-5-yl)-7-methoxy-1H-benzo[d]imidazol-5-yl)methanone]	≥ 7.00	5.30 to 6.30				
CCC1CN(CCCOC)c2cccc3cc(-c4nc5cc(C(=O)N6C[C@H]7CC[C@@H]6[C@@H]7N)cc(F)c5n4CC)n1c23 (stereo partly drawn) [Example 100, ((1R,4R,7R)-7-amino-2-azabicyclo[2.2.1]heptan-2-yl)(1-ethyl-2-(3-ethyl-1-(3-methoxypropyl)-2,3-dihydro-1H-pyrrolo[1,2,3-de]quinoxalin-5-yl)-7-fluoro-1H-benzo[d]imidazol-5-yl)methanone]	6.30 to 7.00	6.30 to 7.00				
CCn1c(-c2cc3cccc4c3n2C(C)CN4CCCO)nc2cc(C(=O)N3C[C@H]4CC[C@@H]3[C@@H]4N)cc(OC)c21 (stereo partly drawn) [Example 68, ((1R,4R,7R)-7-amino-2-azabicyclo[2.2.1]heptan-2-yl)(1-ethyl-2-(1-(3-hydroxypropyl)-3-methyl-2,3-dihydro-1H-pyrrolo[1,2,3-de]quinoxalin-5-yl)-7-methoxy-1H-benzo[d]imidazol-5-yl)methanone]	6.30 to 7.00	6.30 to 7.00				
CCC1CNc2cccc3cc(-c4nn5cc(C(=O)N6C[C@H]7CC[C@@H]6[C@@H]7N)cc(F)c5c4C)n1c23 (stereo partly drawn) [Example 140, [(1R,4R,7R)-7-amino-2-azabicyclo[2.2.1]heptan-2-yl]-[2-(11-ethyl-1,9-diazatricyclo[6.3.1.0^4,12]dodeca-2,4,6,8(12)-tetraen-2-yl)-4-fluoro-3-methyl-pyrazolo[1,5-a]pyridin-6-yl]methanone]	6.30 to 7.00	5.30 to 6.30				
CC[C@H]1CNc2cccc3cc(-c4nc5cc(C(=O)N6C[C@H]7CC[C@@H]6[C@@H]7N)cc(F)c5n4C)n1c23 [Example 74, ((1R,4R,7R)-7-amino-2-azabicyclo[2.2.1]heptan-2-yl)(2-((S)-3-ethyl-2,3-dihydro-1H-pyrrolo[1,2,3-de]quinoxalin-5-yl)-7-fluoro-1-methyl-1H-benzo[d]imidazol-5-yl)methanone]	≥ 7.00	≥ 7.00		more potent than Example 73		
Cn1c(-c2cc3cccc4c3n2[C@@H](C2CC2)CN4)nc2cc(C(=O)N3C[C@H]4CC[C@@H]3[C@@H]4N)cc(F)c21 (single isomer, unassigned) [Example 110]	≥ 7.00	≥ 7.00				
Cn1c(-c2cc3cccc4c3n2C(C2CC2)CN4CCCO)nc2cc(C(=O)N3C[C@H]4CC[C@@H]3[C@@H]4N)cc(F)c21 (mixture of isomers) [Example 111, [(1R,4R,7R)-7-amino-2-azabicyclo[2.2.1]heptan-2-yl]-[2-[11-cyclopropyl-9-(3-hydroxypropyl)-1,9-diazatricyclo[6.3.1.04,12]dodeca-2,4(12), 5,7-tetraen-2-yl]-7-fluoro-1-methyl-benzimidazol-5-yl]methanone]	≥ 7.00	≥ 7.00				
Cn1c(-c2cc3ccc(C#N)c4c3n2C(C2CC2)CN4)nc2cc(C(=O)N3C[C@H]4CC[C@@H]3[C@@H]4N)cc(F)c21 (mixture of isomers) [Example 114, 5-(5-((1R,4R,7R)-7-amino-2-azabicyclo[2.2.1]heptane-2-carbonyl)-7-fluoro-1-methyl-1H-benzo[d]imidazol-2-yl)-3-cyclopropyl-2,3-dihydro-1H-pyrrolo[1,2,3-de]quinoxaline-9-carbonitrile]	≥ 7.00	≥ 7.00				
CCC1CN(CCCO)c2cccc3cc(-c4nc5cc(C(=O)N6C[C@H](N)C[C@@H](F)C6)cc(OC)c5n4C)n1c23 (single isomer, unassigned) [Example 81]	5.30 to 6.30				< 5.30	
COc1cc(C(=O)N2CCC[C@@H](N)C2)cc2nc(-c3cc4cccc5c4n3CCN5CCO)n(C)c12 [Example 10, (R)-(3-aminopiperidin-1-yl)(2-(1-(2-hydroxyethyl)-2,3-dihydro-1H-pyrrolo[1,2,3-de]quinoxalin-5-yl)-7-methoxy-1-methyl-1H-benzo[d]imidazol-5-yl)methanone]	5.30 to 6.30					5.30 to 6.30
Cn1c(-c2cc3cccc4c3n2[C@@H](C2CC2)CN4CCCO)nc2cc(C(=O)N3C[C@H]4CC[C@@H]3[C@@H]4N)cc(F)c21 (single isomer, unassigned) [Example 112]	≥ 7.00	≥ 7.00				
COc1cc(C(=O)N2CCC[C@@H](N)C2)cc2nc(-c3cc4cccc5c4n3CCN5CCCO)n(C)c12 [Example 12, (R)-(3-aminopiperidin-1-yl)(2-(1-(3-hydroxypropyl)-2,3-dihydro-1H-pyrrolo[1,2,3-de]quinoxalin-5-yl)-7-methoxy-1-methyl-1H-benzo[d]imidazol-5-yl)methanone]	6.30 to 7.00	5.30 to 6.30				
Cn1c(-c2cc3cccc4c3n2C(C2CCC2)CN4)nc2cc(C(=O)N3C[C@H]4CC[C@@H]3[C@@H]4N)cc(F)c21 (stereo partly drawn) [Example 164, ((1R,4R,7R)-7-amino-2-azabicyclo[2.2.1]heptan-2-yl)(2-(3-cyclobutyl-2,3-dihydro-1H-pyrrolo[1,2,3-de]quinoxalin-5-yl)-7-fluoro-1-methyl-1H-benzo[d]imidazol-5-yl)methanone]	6.30 to 7.00	≥ 7.00				
